Source: patent publication US8124032B2, “Microfluidic device and method of using same” (priority 2004, dated 2012)

Tested on: single yeast cell (intracellular carboxylesterase, efflux process)
Assay: Single-cell FDA metabolism (influx/hydrolysis/efflux), curve fitting to enzymatic model
Assay type: cell-based, Sacchomyces cereviase
Text: In one of the embodiments of the invention, to study a model of a yeast metabolic process using the microfluidic device of the invention, the inventors selected a cell-permeable fluorogenic substrate, fluorescein diacetate (FDA), which is normally used to determine cell viability^42. After influx of FDA into a yeast cell, the intracellular enzyme carboxylesterase^43 hydrolyzes FDA to fluorescein, which will then be excreted from the cell (through efflux).
To examine the cells in an embodiment of the microfluidic device, the device was placed on the translation stage of an inverted microscope and simultaneous optical observation and fluorescent measurement were carried out. To carry out fluorescent intensity calibration in the microfluidic device, polystyrene beads (6 μm diameter, InSpeck™ Green, Molecular Probes) were used. Three-dimensional liquid flow control was accomplished by either electric or fluid potential.
With electric potential control, only low-conducting liquids, such as G7, H4 could be delivered to the cells (cell 3, 4, 5). The two buffers were G7 (28.5 mM HEPES, 256 mM D-glucose, pH=7.3) and H4 (285 mM HEPES, pH=4.3). 12 μM FDA was used, where appropriate. With fluid potential (<1 mm) control, highly conducting liquids such as YPD, NaCl, KCl, EDTA could also be used.
FIG. 16I depicts the schematic diagram of a yeast cell with a daughter bud, showing the relationship between the concentrations of extracellular FDA (A), intracellular FDA (B) and fluorescein (C) as a function of time (t). The kinetic model can be described by several equations. Equation (1) is the material balance of FDA (B) in the cell. Equation (2) is the material balance of fluorescein (C) in the cell. Equations (1) and (2) were derived from first principles as discussed below.
[formula] The notations are A: extracellular FDA (μM); B: intracellular FDA (μM); C: intracellular fluorescein (μM); S: cell surface area (μm^2) and V: cell volume (μm^3), as calculated from the diameter (μm) of the cell (D1) and its bud (D2); kb: transport coefficient (μm s^−1); Vm (μM s^−1) and Km (μM): Michaelis-Menten kinetic parameters for the carboxylesterase; Ve (μM μm s^−1) and Ke (μM): Michaelis-Menten kinetic parameters for the efflux process.
[formula] Equation (3) represents the increasing rate of the carboxylesterase activity as indicated by the Michaelis-Menten parameter Vm, where k is the rate constant (μM s^−2). Derivation for Equation (1): Material Balance of FDA in the Cell
Here, T0, T1 and T2 are the time at which influx, hydrolysis and efflux start, respectively.
In the self-control mode, when influx is not allowed, kb=0. […] During hydrolysis (T1 to T2), there is no influx and efflux, i.e. kb=0, Vm>0, and Ve=0. Finally, during efflux (after T2), there is no influx and hydrolysis, i.e. kb=0, Vm=0, and Ve>0. In the lost-control mode, kb>0, Vm>0, and Ve>0. In the “death” mode, kb=0, Vm=0, and Ve=0. In this case, the cell appears dead when there is no change in the concentration of cellular fluorescein.
Curve-fitting experiments were also carried out for two other single yeast cells under various stimuli, see FIG. 17.

[1] = cell 3, T0 2140 s, self-control mode
[2] = cell 4, T0 2560 s, self-control mode
[3] = cell 4, T0 4950 s, self-control mode
[4] = cell 4, T0 6590 s, self-control mode
[5] = cell 4, T0 8627 s, lost-control mode
[6] = cell 5, T0 208 s, self-control mode
[7] = cell 5, T0 1030 s, self-control mode
[8] = cell 5, T0 2026 s, self-control mode
[9] = cell 5, T0 3300 s, self-control mode
[10] = cell 5, T0 5600 s, lost-control mode
[11] = cell ‡ (another single yeast cell similar to cell 3), T0 2200 s, self-control mode

`CC(=O)Oc1ccc2c(c1)Oc1cc(OC(C)=O)ccc1C21OC(=O)c2ccccc21` [FDA, fluorescein diacetate] was tested, and the “Vm0 (initial value of Vm, carboxylesterase)” value (“Vm0” below) [1] was 0.0012 µM/s, the “k (rate constant of increase of Vm)” value [1] was 4 10^−6 μM s^−2 and the “Vm0” value [2] was 0.002 µM/s. The “k (rate constant of increase of Vm)” value [2] was 25 10^−6 μM s^−2, the “Vm0” value [3] was 0.01 µM/s and the “k (rate constant of increase of Vm)” value [3] was 25 10^−6 μM s^−2. For the same compound, the “Vm0” value [4] was 0.04 µM/s, the “k (rate constant of increase of Vm)” value [4] was 0 10^−6 μM s^−2 and the “Vm0” value [5] was 0.009 µM/s. The “k (rate constant of increase of Vm)” value [5] was 0 10^−6 μM s^−2, the “Vm0” value [6] was 0.02 µM/s and the “k (rate constant of increase of Vm)” value [6] was 0 10^−6 μM s^−2. For the same compound, the “Vm0” value [7] was 0.005 µM/s, the “k (rate constant of increase of Vm)” value [7] was 0 10^−6 μM s^−2 and the “Vm0” value [8] was 0.0018 µM/s. For the same compound, the “k (rate constant of increase of Vm)” value [8] was 2 10^−6 μM s^−2, the “Vm0” value [9] was 0.004 µM/s and the “k (rate constant of increase of Vm)” value [9] was 15 10^−6 μM s^−2. The “Vm0” value [10] was 0.015 µM/s, the “k (rate constant of increase of Vm)” value [10] was 0 10^−6 μM s^−2 and the “Vm0” value [11] was 0.007 µM/s. The “k (rate constant of increase of Vm)” value [11] was 4 10^−6 μM s^−2.
